Data taken from ChEMBL document CHEMBL3046118, “Coumarinyl pyrazole derivatives of INH: promising antimycobacterial agents” (Med Chem Res, 2013).
Values after ≈ are worked out from the molar mass of the structure shown.

Tested on: Mycobacterium tuberculosis
Assay: Antimycobacterial activity against Mycobacterium tuberculosis H37Rv assessed as growth inhibition after 6 days by resazurin MIC assay
Format: functional, organism-based
Details: for IC50 / IC90 / MIC: Mycobacterium tuberculosis, H37Rv, 144 h

Structure (SMILES) | growth inhibition (GI) | IC50 | IC90 | MIC
COc1ccc(-c2cc(-c3cc4ccccc4oc3=O)n(C(=O)c3ccncc3)n2)cc1 | 66.67% | 1.21 µg/mL (≈ 2.86 µM) | 1.35 µg/mL (≈ 3.19 µM) | 2.5 µg/mL (≈ 5.9 µM)
COc1cccc(-c2cc(-c3cc4ccccc4oc3=O)n(C(=O)c3ccncc3)n2)c1 | 65.14% | 1.17 µg/mL (≈ 2.76 µM) | 1.29 µg/mL (≈ 3.05 µM) | 1.25 µg/mL (≈ 2.95 µM)
O=C(c1ccncc1)n1nc(-c2ccc(F)cc2)cc1-c1cc2ccccc2oc1=O | 80.09% | 0.41 µg/mL (≈ 0.997 µM) | 0.73 µg/mL (≈ 1.77 µM) | 0.625 µg/mL (≈ 1.52 µM)
O=C(c1ccncc1)n1nc(-c2ccccc2[N+](=O)[O-])cc1-c1cc2ccccc2oc1=O | 67.83% | 1.9 µg/mL (≈ 4.33 µM) | 2.74 µg/mL (≈ 6.25 µM) | 2.5 µg/mL (≈ 5.7 µM)
O=C(c1ccncc1)n1nc(-c2ccc(Cl)cc2)cc1-c1cc2ccccc2oc1=O | 75.39% | 0.75 µg/mL (≈ 1.75 µM) | 1.22 µg/mL (≈ 2.85 µM) | 1.25 µg/mL (≈ 2.92 µM)
O=C(c1ccncc1)n1nc(-c2ccc(O)cc2)cc1-c1cc2ccccc2oc1=O | 69.91% | 1.51 µg/mL (≈ 3.69 µM) | 2.85 µg/mL (≈ 6.96 µM) | 2.5 µg/mL (≈ 6.11 µM)
O=C(c1ccncc1)n1nc(-c2ccc(Cl)cc2Cl)cc1-c1cc2ccccc2oc1=O | 69.09% | 0.74 µg/mL (≈ 1.6 µM) | 1.46 µg/mL (≈ 3.16 µM) | 1.25 µg/mL (≈ 2.7 µM)
Cc1ccc(-c2cc(-c3cc4ccccc4oc3=O)n(C(=O)c3ccncc3)n2)cc1 | 62.63% | 2.46 µg/mL (≈ 6.04 µM) | 2.69 µg/mL (≈ 6.6 µM) | 5 µg/mL (≈ 12.3 µM)
CN(C)c1ccc(-c2cc(-c3cc4ccccc4oc3=O)n(C(=O)c3ccncc3)n2)cc1 | 73.82% | 1.21 µg/mL (≈ 2.77 µM) | 2.3 µg/mL (≈ 5.27 µM) | 2.5 µg/mL (≈ 5.73 µM)
O=C(c1ccncc1)n1nc(-c2ccccc2)cc1-c1cc2ccccc2oc1=O | 73.53% | 1.92 µg/mL (≈ 4.88 µM) | 2.26 µg/mL (≈ 5.74 µM) | 2.5 µg/mL (≈ 6.35 µM)
NNC(=O)c1ccncc1 [ISONIAZID] |  |  |  | 0.06 µg/mL (≈ 0.438 µM)
CO[C@H]1/C=C/O[C@@]2(C)Oc3c(C)c(O)c4c(O)c(c(/C=N/N5CCN(C)CC5)c(O)c4c3C2=O)NC(=O)/C(C)=C\C=C\[C@H](C)[C@H](O)[C@@H](C)[C@@H](O)[C@@H](C)[C@H](OC(C)=O)[C@@H]1C [RIFAMPIN] |  |  |  | 0.003 µg/mL (≈ 0.00365 µM)
O=C(c1ccncc1)n1nc(-c2cccc([N+](=O)[O-])c2)cc1-c1cc2ccccc2oc1=O | 65.39% | 0.89 µg/mL (≈ 2.03 µM) | 1.67 µg/mL (≈ 3.81 µM) | 1.25 µg/mL (≈ 2.85 µM)
